Measured values published in US20250324966A1, “ADDITIVE FOR PRESERVING CELLS, TISSUE AND/OR FOOD” (Proteimax Bio Technology Israel LTD, priority 2021, published 2025).

Assays:
[1] = tested on: roses; experiment: Preservation of post-harvest flowers (roses), stems submerged in additive; design: species or system Rosa; settings: single dose 100 μM in water, room temperature (28° C.), 0, 3 and 6 days, vs H2O, FIG. 6
Description: (§1) In this context, as an experimental model to evaluate the preservation of flowers or inflorescences, two different types of flowers and their degradation/preservation profile were evaluated through incubation with water or with a solution of the preservation additive of the invention, keeping the flowers in room temperature for a few days.
(§2) The chosen flowers were the rose (Rose-red) and the Gerbera (Gerbera). Species of the genus Rosa are among the most ornamental flowers cultivated in the world. Species of the genus Gerbera are used as an experimental organism in studies of flowering and flower meristematic development, and because they contain natural coumarin derivatives, they are flowers of phytochemical interest and biological control.
(§3) In this embodiment, the peptide of SEQ ID NO: 15, which comprises the peptide of SEQ ID NO: 9 and the peptide of SEQ ID NO: 2, was used.
(§4) Four flowers were used in each container, the stems being kept submerged with at least 5 cm of the respective liquid during the test period. Aluminum foil was used around the container where the stems were submerged, to protect from the incidence of light. Photographic results of flowers kept in each condition (control and test) at 0, 3 and 6 days are shown. […]

[2] = tested on: Gerberas; experiment: Preservation of post-harvest flowers (Gerberas), stems submerged in additive; design: species or system Gerbera; settings: single dose 100 μM in water, room temperature (28° C.), 0, 3 and 6 days, vs H2O, FIG. 6
Description: as §1, §2, §3, §4

[3] = tested on: fresh strawberries; experiment: Preservation of strawberries against rot at 4° C.; settings: 100 μM peptide in water, kept at 4° C., 5 days; intense rot visible in untreated group; FIG. 3 D
Description: (§5) The peptide of SEQ ID NO: 3, which comprises pep5 (SEQ ID NO: 1) and the cell-penetrating peptide (SEQ ID NO: 2), was prepared in a 100 μM solution in water, for direct topical use on the food to be preserved.
A new experiment with strawberries, now with the test and control groups being kept at a temperature of 4° C.
Representative results of strawberries in each condition (test and control) at 0 h, 24 h, 48 h and 5 days, respectively in A, B, C and D are shown.

[4] = tested on: bean seeds; experiment: Modulation of the germination rate of bean seeds; design: species or system black bean; settings: single dose 100 μM in water, moist cotton, vs water
Description: To evaluate the effects of the additive of the invention in the modulation of cell division or multiplication in plants, particularly in the modulation of seed germination and/or plant development, an experiment aimed at observing the germination of bean seeds and the subsequent development of seedlings was conducted. Groups of groups of 14 black bean seeds were placed in moist cotton, each group in one condition: control, with application of water; and test, with application of the additive of the invention as described below. The state of the seeds was observed and documented at times 0, 3 and 4, and the pattern and profile of germination of the beans were analyzed.
The results of germination of groups of 14 seeds in moist cotton in each condition (control and test) in 0, 3 and 4 days, respectively in A, B and C are shown.

[5] = tested on: fresh strawberries; experiment: Preservation of strawberries against fungal contamination, single topical application; settings: 100 μM peptide in water
Description: as §5
The peptide of SEQ ID NO: 15, which comprises the peptide of SEQ ID NO: 9 and the cell penetrating peptide of SEQ ID NO: 2, was prepared in a 100 μM solution in water, for use in the food or plant to be preserved.
The additive prepared according to example 1 was used in experiments for food preservation by single topical application.
The results of groups of 10 strawberries in each condition (test and control) at 0, 12, 24, 36, 48 and 60 h, respectively in A, B, C, D, E and F are shown.

Substance	preservation of flowers (roses), visual [1]	preservation of flowers (Gerberas), visual [2]	presence of intense rot in strawberries [3]	seed germination process (number of bean seeds germinated) ([4]; room temperature (28° C.), 0, 3 and 4 days, FIGS. 4 and 5)	metabolic state of the shoots or seedlings ([4]; room temperature (28° C.))	fruit preservation (visual results, percentage of spoiled fruits) ([5]; single application, 0-60 h, vs water control, FIGS. 1 and 2)	presence of a fungus with white hyphae on strawberries ([5]; single topical application, FIG. 1 D and E (36 and 48 h), visible in water control)
SEQ ID NO: 15: peptide containing the peptide of SEQ ID NO: 9 and the cell-penetrating peptide of SEQ ID NO: 2 (WELVVLYGRKKRRQRRR)	effective preservation	effective preservation	–	–	–	–	–
SEQ ID NO: 3: peptide containing the peptide of SEQ ID NO: 1 (WELVVLGKL) and the cell-penetrating peptide of SEQ ID NO: 2 (YGRKKRRQRRR) in the C-terminal region (WELVVLGKLYGRKKRRQRRR)	–	–	not detectable	delay in the seed germination process	substantial modulation	great potential for fruit preservation	not detectable
